Data published in patent publication US11701372B2, “Inhalation formulations of 1'-cyano substituted carba-nucleoside analogs” (priority 2020, dated 2023).
Like-named read-outs stand apart in the source and are kept apart here.

Assays:
[1] = type: physicochemical; conditions: for % assay/degs: T = 0
Experimental: For each condition, samples were staged at ambient and refrigerated conditions. Samples were analyzed for % assay/degs, appearance, reconstitution time, pH, and compared to T=0. The structures of the key impurities/metabolites are shown below.

[2] = In use testing of reconstituted solutions in IV bags and IV tubings; type: physicochemical
From the text: The IV bags and IV tubings were sampled over time and tested for % assay/degradation.

[3] = PK following IV administration of Formula Ia in African Green Monkeys; parameters: species or system African Green Monkeys; conditions: monkey, in vivo; 10 mg/kg IV AGM; read-out: AUC0-t
in vivo = conditions: both, monkey, inhaled or intranasal
Experimental: The average deposited dose was calculated at 0.168 mg/kg and 0.536 mg/kg, respectively. Plasma, peripheral blood mononuclear cells (PBMCs), trachea, bronchi, lung lobe, liver, kidney, nasal mucosa and nasopharyngeal mucosa samples were collected in this study.

N#C[C@@]1(c2ccc3c(N)ncnn23)O[C@H](CO)[C@@H](O)[C@H]1O [Compound A]
0.01%: % assay/degs, difference from T = 0 ([1]; pH 1.8, 2-8° C., 24 h) | % assay/degs, difference from T = 0 ([1]; pH 1.8, Ambient, 3 h) | % assay/degs, difference from T = 0 ([1]; pH 1.8, Ambient, 8 h) | % assay/degs, difference from T = 0 ([1]; pH 2.0, 2-8° C., 48 h) | % assay/degs, difference from T = 0 ([1]; pH 2.0, Ambient, 8 h) | % assay/degs, difference from T = 0 ([1]; pH 3.5, Ambient, 96 h) | % assay/degs, difference from T = 0 ([1]; pH 3.5, Ambient, 168 h)
0.00%: % assay/degs, difference from T = 0 ([1]; pH 1.8, 2-8° C., 2 h) | % assay/degs, difference from T = 0 ([1]; pH 1.8, 2-8° C., 3 h) | % assay/degs, difference from T = 0 ([1]; pH 1.8, 2-8° C., 8 h) | % assay/degs, difference from T = 0 ([1]; pH 1.8, Ambient, 1 h) | % assay/degs, difference from T = 0 ([1]; pH 1.8, Ambient, 2 h) | % assay/degs, difference from T = 0 ([1]; pH 2.0, 2-8° C., 2 h) | % assay/degs, difference from T = 0 ([1]; pH 2.0, 2-8° C., 3 h) | % assay/degs, difference from T = 0 ([1]; pH 2.0, 2-8° C., 8 h) | % assay/degs, difference from T = 0 ([1]; pH 2.0, 2-8° C., 24 h) | % assay/degs, difference from T = 0 ([1]; pH 2.0, Ambient, 1 h) | % assay/degs, difference from T = 0 ([1]; pH 2.0, Ambient, 2 h) | % assay/degs, difference from T = 0 ([1]; pH 2.0, Ambient, 3 h) | % assay/degs, difference from T = 0 ([1]; pH 3.5, 2-8° C., 2 h) | % assay/degs, difference from T = 0 ([1]; pH 3.5, 2-8° C., 8 h) | % assay/degs, difference from T = 0 ([1]; pH 3.5, 2-8° C., 24 h) | % assay/degs, difference from T = 0 ([1]; pH 3.5, 2-8° C., 48 h) | % assay/degs, difference from T = 0 ([1]; pH 3.5, 2-8° C., 72 h) | % assay/degs, difference from T = 0 ([1]; pH 3.5, 2-8° C., 96 h) | % assay/degs, difference from T = 0 ([1]; pH 3.5, 2-8° C., 168 h) | % assay/degs, difference from T = 0 ([1]; pH 3.5, Ambient, 2 h) | % assay/degs, difference from T = 0 ([1]; pH 3.5, Ambient, 8 h) | % assay/degs, difference from T = 0 ([1]; pH 3.5, Ambient, 24 h) | % assay/degs, difference from T = 0 ([1]; pH 3.5, Ambient, 48 h) | % assay/degs, difference from T = 0 ([1]; pH 3.5, Ambient, 72 h) | % assay/degs, difference from T = 0 ([1]; pH 3.8, 2-8° C., 7.2 h) | % assay/degs, difference from T = 0 ([1]; pH 3.8, 2-8° C., 24 h) | % assay/degs, difference from T = 0 ([1]; pH 3.8, 2-8° C., 96 h) | % assay/degs, difference from T = 0 ([1]; pH 3.8, 2-8° C., 168 h) | % assay/degs, difference from T = 0 ([1]; pH 3.8, Ambient, 7.2 h) | % assay/degs, difference from T = 0 ([1]; pH 3.8, Ambient, 24 h) | % assay/degs, difference from T = 0 ([1]; pH 3.8, Ambient, 96 h) | % assay/degs, difference from T = 0 ([1]; pH 3.8, Ambient, 168 h) | % assay/degs, difference from T = 0 ([1]; pH 4.0, 2-8° C., 7.2 h) | % assay/degs, difference from T = 0 ([1]; pH 4.0, 2-8° C., 24 h) | % assay/degs, difference from T = 0 ([1]; pH 4.0, 2-8° C., 96 h) | % assay/degs, difference from T = 0 ([1]; pH 4.0, 2-8° C., 168 h) | % assay/degs, difference from T = 0 ([1]; pH 4.0, Ambient, 7.2 h) | % assay/degs, difference from T = 0 ([1]; pH 4.0, Ambient, 24 h) | % assay/degs, difference from T = 0 ([1]; pH 4.0, Ambient, 96 h) | % assay/degs, difference from T = 0 ([1]; pH 4.0, Ambient, 168 h)
1 h: Tmax (in vivo; 0.168 mg/kg)
0.09%: % assay/degs, difference from T = 0 ([1]; pH 1.8, Ambient, 48 h)
0.03 % w/w: % assay/degradation ([2]; 30 mg (IV Tube), Ambient 6 Hours)
0.02 % w/w: % assay/degradation ([2]; 0 h, 0.3 mg/mL) | % assay/degradation ([2]; 30 mg (IV Bag), Ambient 8 h) | % assay/degradation ([2]; 30 mg (IV Bag), Ambient 24 h) | % assay/degradation ([2]; 30 mg (IV Bag), T = 0 (2-8° C. series)) | % assay/degradation ([2]; 200 mg (IV Bag), 2-8° C. 24 h) | % assay/degradation ([2]; 200 mg (IV Bag), 2-8° C. 48 h) | % assay/degradation ([2]; 200 mg (IV Bag), Ambient 8 h) | % assay/degradation ([2]; 200 mg (IV Bag), Ambient 24 h) | % assay/degradation ([2]; 200 mg (IV Bag), T = 0 (2-8° C. series)) | % assay/degradation ([2]; 200 mg in 100 mL 0.9% Saline (IV Bag), T = 0 (Ambient series)) | % assay/degradation ([2]; 4 h, 0.3 mg/mL) | % assay/degradation ([2]; 4 h, 2 mg/mL) | % assay/degradation ([2]; 6 h, 2 mg/mL) | % assay/degradation ([2]; 24 h, 0.3 mg/mL) | % assay/degradation ([2]; 48 h, 0.3 mg/mL)
0.03%: % assay/degs, difference from T = 0 ([1]; pH 2.0, Ambient, 24 h)
2 h: Tmax (in vivo; 0.536 mg/kg)
9.06 µM·h: AUC(0-t) [3]
71 ± 11 nM: Cmax (in vivo; 0.536 mg/kg)
0.05%: % assay/degs, difference from T = 0 ([1]; pH 1.8, Ambient, 24 h)
0.02%: % assay/degs, difference from T = 0 ([1]; pH 1.8, 2-8° C., 48 h) | % assay/degs ([1]; pH 1.8) | % assay/degs ([1]; pH 2.0) | % assay/degs ([1]; pH 3.5) | % assay/degs ([1]; pH 3.8) | % assay/degs ([1]; pH 4.0)
0.06%: % assay/degs, difference from T = 0 ([1]; pH 2.0, Ambient, 48 h)
